{"source": "patent US20260133203A1", "about": "“DETECTION OF FUMARATE-DERIVED MODIFICATION IN A TEST SAMPLE” (UNIVERSITY OF SOUTH CAROLINA, priority 2017, published 2026)", "test_system": "N1E-115 neurons", "assay": "LC-MS/MS identification of succinated proteins in N1E-115 neurons", "format": "cell-based, mouse", "settings": "DMF-treated N1E-115 neurons", "experimental": "N1E-115 cells (subclone N1E-115-1 neuroblastoma cells) were obtained from Sigma (08062511, St. Louis, MO). The cells were grown and expanded in non-differentiation medium (NDM): 90% DMEM (GibcoTM, Grand Island, NY) with 25 mM glucose, no pyruvate, 25 mM HEPES, 4 mM glutamine and 10% fetal bovine serum (FBS, Atlanta Biologicals, Atlanta, GA). At 80% confluence, the cells were differentiated into neurons in the presence of 2% FBS and 1.25% dimethyl sulfoxide in DMEM for 5 days. In addition to the assessment of the neuronal phenotype by light microscopy, the detection of synaptophysin protein levels was used to confirm successful differentiation. […] After gel extraction, the peptides were re-suspended in 1% acetic acid and analyzed on a DionexTM […] system (Thermo ScientificTM, Rockford, IL) coupled to an Orbitrap Velos ProTM mass spectrometer (Thermo ScientificTM, Rockford, IL). […] The data-dependent acquisition (DDA) data were analyzed using Proteome DiscovererTM 1.4 software with SEQUEST search engine against the uniprot_ref_mouse database (2014-10-03 version, 52,474 proteins) or uniprot_ref_rat database (2011-5-11 version, 39765 proteins) with Xcorr>1 validation (+2) and an allowance for 2 missed cleavages. […]", "note": "Structures can show the parent of a compound that is named as a salt."}
{"smiles": "COC(=O)/C=C/C(=O)OC", "note": "[DMF, dimethyl fumarate]", "values": [{"measurement": "number of protein subunits modified by either DMF or MMF", "value": 15}]}
